From patent publication US20260345596A1, “TREATMENT OF LOCALLY ADVANCED OR METASTATIC UROTHELIAL CARCINOMA WITH ERDAFINITIB” (priority 2023, published 2026) come the findings set out here.

The nature of one series: clinical. The following applies: human, in vivo, po.
The test system of the next series is rats. In words: 3-month repeat-dose toxicity study, female reproductive organs. The following applies: exposure less than human AUC at maximum recommended dose.

As a reminder, the CL/F is clearance divided by bioavailability, as obtained after extravascular dosing. Usually Vd/F stands for the apparent distribution volume after extravascular dosing.

In “clinical”, `COc1cc(OC)cc(N(CCNC(C)C)c2ccc3ncc(-c4cnn(C)c4)nc3c2)c1` [Erdafitinib, N-(3,5-dimethoxyphenyl)-N′-(1-methylethyl)-N-[3-(1-methyl-1H-pyrazol-4-yl)quinoxalin-6-yl]ethane-1,2-diamine] had a CL/F of 6.03 mL/min and a Vd/F of 29 L. For the same molecule, in the series with rats, the “Effects on female reproductive organs” value is recorded as “showed effects on female reproductive organs (necrosis of the ovarian corpora lutea)”.
